# Key:
# [1] = test system: M. pneumoniae ATCC 15492; assay: Anti-mycoplasma MIC; format: cell-based; conditions: Mycoplasmoides pneumoniae, ATCC15492, M. pneumoniae ATCC 15492
# [2] = test system: M. arthritidis ATCC 14124; assay: Anti-mycoplasma MIC; format: cell-based
# [3] = test system: M. suipneumoniae J2206/183b; assay: Anti-mycoplasma MIC; format: cell-based; conditions: Mesomycoplasma hyopneumoniae, J2206/183B
# [4] = test system: H. influenzae Wy21; assay: MIC by serial dilution in nutrient agar (human bacteria); conditions: Haemophilus influenzae
# [5] = test system: N. catarrhalis 1502; assay: as above; conditions: Neisseria
# [6] = test system: Past. haemolytica PA5; assay: MIC against veterinary bacteria; conditions: Mannheimia haemolytica
# [7] = test system: M. dispar H225; assay: Anti-mycoplasma MIC; format: cell-based
# [8] = test system: Strep. pyogenes A 64/848; assay: MIC by serial dilution in nutrient agar (human bacteria); conditions: Streptococcus pyogenes, A64/848
# [9] = test system: M. hyosynoviae ATCC 25591; assay: Anti-mycoplasma MIC; format: cell-based
# [10] = test system: Strep. uberis SPU1; assay: MIC against veterinary bacteria; conditions: Streptococcus uberis
# [11] = test system: M. pneumoniae 427a; assay: Anti-mycoplasma MIC; format: cell-based; conditions: Mycoplasmoides pneumoniae
# [12] = test system: M. bovis ATCC 25025; assay: microbe, parasite or virus in culture; format: cell-based; conditions: ATCC25025
# [13] = test system: Staph. aureus B4 (pen resistant); assay: MIC against veterinary bacteria; conditions: Staphylococcus aureus
# [14] = test system: Past. multocida PA1; assay: MIC against veterinary bacteria; conditions: Pasteurella multocida
# [15] = test system: M. synoviae ATCC 25204; assay: Anti-mycoplasma MIC; format: cell-based; conditions: Mycoplasmopsis synoviae, ATCC25204
# [16] = test system: M. alkalescens NCTC 10135; assay: Anti-mycoplasma MIC; format: cell-based
# [17] = test system: Past. multocida 1633; assay: MIC by serial dilution in nutrient agar (human bacteria); conditions: Pasteurella multocida
# [18] = test system: M. fermentans MWKL4; assay: Anti-mycoplasma MIC; format: cell-based; conditions: Mycoplasmopsis fermentans
# [19] = test system: Strep. dysgalactiae SPD1; assay: MIC against veterinary bacteria; conditions: Streptococcus dysgalactiae
# [20] = test system: Past. multocida PA2; assay: MIC against veterinary bacteria; conditions: Pasteurella multocida
# [21] = test system: Strep. pyogenes B 2788; assay: MIC by serial dilution in nutrient agar (human bacteria); conditions: Streptococcus pyogenes, B2788
# [22] = test system: B. subtilis; assay: as above; conditions: Bacillus subtilis
# [23] = test system: H. influenzae Q1; assay: as above; conditions: Haemophilus influenzae
# [24] = test system: Strep. agalactiae SPA1; assay: MIC against veterinary bacteria; conditions: Streptococcus agalactiae
# [25] = test system: M. gallisepticum S6; assay: Anti-mycoplasma MIC; format: cell-based; conditions: Mycoplasmoides gallisepticum, S6
# [26] = test system: M. dispar NCTC 10125; assay: Anti-mycoplasma MIC; format: cell-based
# [27] = test system: Staph. aureus Russell; assay: MIC by serial dilution in nutrient agar (human bacteria); conditions: Staphylococcus aureus
# [28] = test system: Strep. pneumoniae CN33; assay: as above; conditions: Streptococcus pneumoniae
# [29] = test system: M. pulmonis JB; assay: Anti-mycoplasma MIC; format: cell-based; conditions: Mycoplasmopsis pulmonis
# [30] = test system: M. bovigenitalium ATCC 14173; assay: Anti-mycoplasma MIC; format: cell-based
# [31] = test system: M. bovis NCTC 10131; assay: microbe, parasite or virus in culture; format: cell-based; conditions: NCTC10131
# [32] = test system: Bord. bronchiseptica BO9; assay: MIC against veterinary bacteria; conditions: Bordetella bronchiseptica
# [33] = test system: Staph. aureus Oxford; assay: MIC by serial dilution in nutrient agar (human bacteria); conditions: Staphylococcus aureus
# [34] = test system: Staph. aureus 1517; assay: as above; format: cell-based; conditions: Staphylococcus aureus
# [35] = test system: Strep. pyogenes C 2761; assay: as above; conditions: Streptococcus pyogenes, C2761
# [36] = test system: Bord. bronchiseptica BO8; assay: MIC against veterinary bacteria; conditions: Bordetella bronchiseptica
# [37] = test system: M. suipneumoniae Str. 11; assay: Anti-mycoplasma MIC; format: cell-based; conditions: Mesomycoplasma hyopneumoniae, STR.11
# [38] = test system: M. hyorhinis ATCC 23234; assay: Anti-mycoplasma MIC; format: cell-based; conditions: Mesomycoplasma hyorhinis, ATCC23234
# [39] = Agar (serial dilution in Friis' agar)
# [40] = Broth (Friis' broth, microtiter method)
compound,measurement,setting,value
"CCOC(=O)/C=C(\C)CC1OCC(C/C=C/C(C)C(C)O)C(O)C1O (stereo not drawn) [Ethyl, Ethyl Monate C]",MIC,[1]; [39],5 µg/mL
same,MIC,[1]; [40],10 µg/mL
same,MIC,[2],> 10 µg/mL
same,MIC,[3],10 µg/mL
same,MIC,[4],1 µg/mL
same,MIC,[5],0.2 µg/mL
same,MIC,[6],40 µg/mL
same,MIC,[7],0.078 µg/mL
same,MIC,[8],10 µg/mL
same,MIC,[9],1.25 µg/mL
same,MIC,[10],5 µg/mL
same,MIC,[11]; [39],5 µg/mL
same,MIC,[11]; [40],10 µg/mL
same,MIC,[12],0.156 µg/mL
same,MIC,[13],1.25 µg/mL
same,MIC,[14],5 µg/mL
same,MIC,[15],0.039 µg/mL
same,MIC,[16],0.039 µg/mL
same,MIC,[17],5 µg/mL
same,MIC,[18]; [39],0.312 µg/mL
same,MIC,[18]; [40],0.156 µg/mL
same,MIC,[19],20 µg/mL
same,MIC,[20],5 µg/mL
same,MIC,[21],0.5 µg/mL
same,MIC,[22],1 µg/mL
same,MIC,[23],0.2 µg/mL
same,MIC,[24],20 µg/mL
same,MIC,[25],> 10 µg/mL
same,MIC,[26],0.156 µg/mL
same,MIC,[27],0.2 µg/mL
same,MIC,[28],2.5 µg/mL
same,MIC,[29]; [39],0.039 µg/mL
same,MIC,[29]; [40],0.156 µg/mL
same,MIC,[30],0.078 µg/mL
same,MIC,[31],0.156 µg/mL
same,MIC,[32],40 µg/mL
same,MIC,[33],0.2 µg/mL
same,MIC,[34],0.2 µg/mL
same,MIC,[35],5 µg/mL
same,MIC,[36],> 80 µg/mL
same,MIC,[37],1.25 µg/mL
same,MIC,[38],2.5 µg/mL
